Patent US20250223268A1, “4-Methylsulfonylbenzamide Compound, Preparation Method, Herbicidal Composition And Use” (Jiangsu Flag Chemical Industry Co., Ltd., priority 2022, published 2025)

Key:
Format in all cases: in vivo
Leptochloa chinensis [1] = assay: Greenhouse herbicidal activity and crop safety comparison (Test Example 2); conditions: Rate 150 g/ha; for inhibition at 150 g/ha: Dinebra chinensis, read-out: Leptochloa chinensis, control efficacy grading (fresh weight inhibition rate)
How it was run: (§1)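 Fresh weight inhibition, banded into grades A to E (E <20%), was rated 14-21 days after foliar spraying of 3-6 leaf plants, or 14-30 days after a soil spray applied 24 h post-sowing.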

[2] = test system: Oryza sativa subsp. indica; assay: as above; conditions: Rate 150 g/ha
How it was run: as §1

[3] = test system: Oryza sativa subsp. japonica; assay: as above; conditions: Rate 150 g/ha
How it was run: as §1

Echinochloa crusgalli [4] = assay: as above; conditions: Rate 150 g/ha; for inhibition at 150 g/ha: Echinochloa crus-galli, read-out: Echinochloa crusgalli, control efficacy grading (fresh weight inhibition rate)
How it was run: as §1

Leptochloa chinensis [5] = assay: Greenhouse herbicidal activity assay, post-emergence; conditions: Post-emergence test, rate 150 g a.i./hm^2, grade by fresh weight inhibition rate; for pest or weed control at 150 g/ha: Dinebra chinensis, read-out: Control efficacy grade, Leptochloa chinensis
How it was run: (§2)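 Foliar spray at 3-6 leaves; pot-grown in nutrient soil in growth chamber; air-dried post-spray. Read-out at 14-21 d: fresh weight inhibition, graded A (≥80% to 100%) down to E (<20%); NT = not tested.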

Eclipta prostrata = assay: as above; conditions: Post-emergence test, rate 150 g a.i./hm^2, grade by fresh weight inhibition rate; for pest or weed control at 150 g/ha: Eclipta prostrata, read-out: Control efficacy grade, Eclipta prostrata
How it was run: as §2

Digitaria sanguinalis = assay: as above; conditions: Post-emergence test, rate 150 g a.i./hm^2, grade by fresh weight inhibition rate; for pest or weed control at 150 g/ha: Digitaria sanguinalis, read-out: Control efficacy grade, Digitaria sanguinalis
How it was run: as §2

Cyperus iria = assay: as above; conditions: Post-emergence test, rate 150 g a.i./hm^2, grade by fresh weight inhibition rate; for pest or weed control at 150 g/ha: Cyperus iria, read-out: Control efficacy grade, Cyperus iria
How it was run: as §2

Echinochloa crusgalli [6] = assay: as above; conditions: Post-emergence test, rate 150 g a.i./hm^2, grade by fresh weight inhibition rate; for pest or weed control at 150 g/ha: Echinochloa crus-galli, read-out: Control efficacy grade, Echinochloa crusgalli
How it was run: as §2

| Structure (SMILES) | Leptochloa chinensis, control efficacy grading (fresh weight inhibition rate) (Leptochloa chinensis [1]) | Oryza sativa subsp. indica, grading of fresh weight inhibition rate (crop safety) [2] | Oryza sativa subsp. japonica, grading of fresh weight inhibition rate (crop safety) [3] | Echinochloa crusgalli, control efficacy grading (fresh weight inhibition rate) (Echinochloa crusgalli [4]) | Control efficacy grade, Leptochloa chinensis (Leptochloa chinensis [5]) | Control efficacy grade, Eclipta prostrata (Eclipta prostrata) | Control efficacy grade, Digitaria sanguinalis (Digitaria sanguinalis) | Control efficacy grade, Cyperus iria (Cyperus iria) | Control efficacy grade, Echinochloa crusgalli (Echinochloa crusgalli [6]) | inhibition at 150 g/ha (Leptochloa chinensis [1]) [%] | inhibition at 150 g/ha (Echinochloa crusgalli [4]) [%] | pest or weed control at 150 g/ha (Leptochloa chinensis [5]) [%] | pest or weed control at 150 g/ha (Eclipta prostrata) [%] | pest or weed control at 150 g/ha (Digitaria sanguinalis) [%] | pest or weed control at 150 g/ha (Cyperus iria) [%] | pest or weed control at 150 g/ha (Echinochloa crusgalli [6]) [%] |
| --- | --- | --- | --- | --- | --- | --- | --- | --- | --- | --- | --- | --- | --- | --- | --- | --- |
| CCc1nnc(NC(=O)c2ccc(S(C)(=O)=O)c(S(=O)(=O)C3CCC3)c2Cl)o1 [Compound 3-428] | A (Fresh weight inhibition rate≥80% to 100%) | E (Fresh weight inhibition rate<20%) | E (Fresh weight inhibition rate<20%) | A (Fresh weight inhibition rate≥80% to 100%) | A (Fresh weight inhibition rate≥80% to 100%) | A (Fresh weight inhibition rate≥80% to 100%) | A (Fresh weight inhibition rate≥80% to 100%) | A (Fresh weight inhibition rate≥80% to 100%) | A (Fresh weight inhibition rate≥80% to 100%) |  |  |  |  |  |  |  |
| Cc1nnc(NC(=O)c2ccc(S(C)(=O)=O)c(S(=O)(=O)CC3CC3)c2Cl)o1 [Compound 3-41] | A (Fresh weight inhibition rate≥80% to 100%) | E (Fresh weight inhibition rate<20%) | E (Fresh weight inhibition rate<20%) | A (Fresh weight inhibition rate≥80% to 100%) | A (Fresh weight inhibition rate≥80% to 100%) | A (Fresh weight inhibition rate≥80% to 100%) | A (Fresh weight inhibition rate≥80% to 100%) | A (Fresh weight inhibition rate≥80% to 100%) | A (Fresh weight inhibition rate≥80% to 100%) |  |  |  |  |  |  |  |
| CC(C)S(=O)(=O)c1c(S(C)(=O)=O)ccc(C(=O)Nc2nnc(C3CC3)o2)c1Cl [Compound 3-624, 2-chloro-N-(5-cyclopropyl-1,3,4-oxadiazol-2-yl)-3-(isopropylsulfonyl)-4-(methylsulfonyl)benzamide] |  | E (Fresh weight inhibition rate<20%) | E (Fresh weight inhibition rate<20%) |  |  |  |  |  |  | 80 to 100 | 80 to 100 | 80 to 100 | 80 to 100 | 80 to 100 | 80 to 100 | 80 to 100 |
| CC(C)c1nnc(NC(=O)c2ccc(S(C)(=O)=O)c(S(=O)(=O)C(C)C)c2Cl)o1 [Compound 3-508] | A (Fresh weight inhibition rate≥80% to 100%) | E (Fresh weight inhibition rate<20%) | E (Fresh weight inhibition rate<20%) | A (Fresh weight inhibition rate≥80% to 100%) | A (Fresh weight inhibition rate≥80% to 100%) | A (Fresh weight inhibition rate≥80% to 100%) | A (Fresh weight inhibition rate≥80% to 100%) | A (Fresh weight inhibition rate≥80% to 100%) | A (Fresh weight inhibition rate≥80% to 100%) |  |  |  |  |  |  |  |
| Cc1nnc(NC(=O)c2ccc(S(C)(=O)=O)c(S(=O)(=O)C3CCC3)c2Cl)o1 [Compound 3-86] | A (Fresh weight inhibition rate≥80% to 100%) | E (Fresh weight inhibition rate<20%) | E (Fresh weight inhibition rate<20%) | A (Fresh weight inhibition rate≥80% to 100%) | A (Fresh weight inhibition rate≥80% to 100%) | A (Fresh weight inhibition rate≥80% to 100%) | A (Fresh weight inhibition rate≥80% to 100%) | A (Fresh weight inhibition rate≥80% to 100%) | A (Fresh weight inhibition rate≥80% to 100%) |  |  |  |  |  |  |  |
| C=CCS(=O)(=O)c1c(S(C)(=O)=O)ccc(C(=O)Nc2nnc(C)o2)c1Cl [Compound 3-116] | A (Fresh weight inhibition rate≥80% to 100%) | E (Fresh weight inhibition rate<20%) | E (Fresh weight inhibition rate<20%) | A (Fresh weight inhibition rate≥80% to 100%) | A (Fresh weight inhibition rate≥80% to 100%) | A (Fresh weight inhibition rate≥80% to 100%) | A (Fresh weight inhibition rate≥80% to 100%) | C (Fresh weight inhibition rate≥40% to <60%) | A (Fresh weight inhibition rate≥80% to 100%) |  |  |  |  |  |  |  |
| CCc1nnc(NC(=O)c2ccc(S(C)(=O)=O)c(S(=O)(=O)C(C)C)c2Cl)o1 [Compound 3-392, 2-chloro-N-(5-ethyl-1,3,4-oxadiazol-2-yl)-3-(isopropylsulfonyl)-4-(methylsulfonyl)benzamide] |  | E (Fresh weight inhibition rate<20%) | E (Fresh weight inhibition rate<20%) |  |  |  |  |  |  | 80 to 100 | 80 to 100 | 80 to 100 | 80 to 100 | 80 to 100 | 80 to 100 | 80 to 100 |
| CS(=O)(=O)c1ccc(C(=O)Nc2nnco2)c(Cl)c1S(=O)(=O)C1CCC1 [Compound 3-312] | A (Fresh weight inhibition rate≥80% to 100%) | E (Fresh weight inhibition rate<20%) | E (Fresh weight inhibition rate<20%) | A (Fresh weight inhibition rate≥80% to 100%) | A (Fresh weight inhibition rate≥80% to 100%) | A (Fresh weight inhibition rate≥80% to 100%) | A (Fresh weight inhibition rate≥80% to 100%) | A (Fresh weight inhibition rate≥80% to 100%) | A (Fresh weight inhibition rate≥80% to 100%) |  |  |  |  |  |  |  |
